PubChem BioAssay (NCI)
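Exposure lasted 48 hours, with cells grown in 96-well plates and compounds tested at five concentrations. GI50: concentration for 50% inhibition of growth. The concentration for full growth arrest is given as TGI.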

Columns and labels:
Assay in all cases: NCI anticancer screen, dose series, 48 h
786-0 renal = tested on: 786-0 renal
A498 renal = tested on: A498 renal
A549 NSCLC = tested on: A549 NSCLC
ACHN renal = tested on: ACHN renal
BT-549 breast = tested on: BT-549 breast
CAKI-1 renal = tested on: CAKI-1 renal
CCRF-CEM leukemia = tested on: CCRF-CEM leukemia
COLO 205 colon = tested on: COLO 205 colon
DU-145 prostate = tested on: DU-145 prostate
EKVX NSCLC = tested on: EKVX NSCLC
HCC-2998 colon = tested on: HCC-2998 colon
HCT-116 colon = tested on: HCT-116 colon
HCT-15 colon = tested on: HCT-15 colon
HL-60(TB) leukemia = tested on: HL-60(TB) leukemia
HOP-62 NSCLC = tested on: HOP-62 NSCLC
HOP-92 NSCLC = tested on: HOP-92 NSCLC
HS 578T breast = tested on: HS 578T breast
HT29 colon = tested on: HT29 colon
IGROV1 ovarian = tested on: IGROV1 ovarian
K-562 leukemia = tested on: K-562 leukemia
KM12 colon = tested on: KM12 colon
LOX IMVI melanoma = tested on: LOX IMVI melanoma
M14 melanoma = tested on: M14 melanoma
MALME-3M melanoma = tested on: MALME-3M melanoma
MCF7 breast = tested on: MCF7 breast
MDA-MB-231 breast = tested on: MDA-MB-231 breast
MDA-MB-435 = tested on: MDA-MB-435
MOLT-4 leukemia = tested on: MOLT-4 leukemia
NCI-H226 lung = tested on: NCI-H226 lung
NCI-H23 lung = tested on: NCI-H23 lung
NCI-H460 lung = tested on: NCI-H460 lung
NCI-H522 lung = tested on: NCI-H522 lung
NCI/ADR-RES ovarian = tested on: NCI/ADR-RES ovarian
OVCAR-3 ovarian = tested on: OVCAR-3 ovarian
OVCAR-4 ovarian = tested on: OVCAR-4 ovarian
OVCAR-5 ovarian = tested on: OVCAR-5 ovarian
OVCAR-8 ovarian = tested on: OVCAR-8 ovarian
PC-3 prostate = tested on: PC-3 prostate
RPMI-8226 leukemia = tested on: RPMI-8226 leukemia
RXF 393 renal = tested on: RXF 393 renal
SF-268 CNS = tested on: SF-268 CNS
SF-295 CNS = tested on: SF-295 CNS
SF-539 CNS = tested on: SF-539 CNS
SK-MEL-2 melanoma = tested on: SK-MEL-2 melanoma
SK-MEL-28 melanoma = tested on: SK-MEL-28 melanoma
SK-MEL-5 melanoma = tested on: SK-MEL-5 melanoma
SK-OV-3 ovarian = tested on: SK-OV-3 ovarian
SN12C renal = tested on: SN12C renal
SNB-19 CNS = tested on: SNB-19 CNS
SNB-75 CNS = tested on: SNB-75 CNS
SR leukemia = tested on: SR leukemia
SW-620 colon = tested on: SW-620 colon
T-47D breast = tested on: T-47D breast
TK-10 renal = tested on: TK-10 renal
U251 CNS = tested on: U251 CNS
UACC-257 melanoma = tested on: UACC-257 melanoma
UACC-62 melanoma = tested on: UACC-62 melanoma
UO-31 renal = tested on: UO-31 renal

Structure (SMILES): COc1ccc(Oc2cc(NCCC(F)(F)F)c3ncc(-c4ccc(C(=O)NC5CC5)c(C)c4)n3n2)c(F)c1F
- GI50 (786-0 renal): 1.05 µM
- TGI (786-0 renal): > 52.3 µM
- TGI (A498 renal): 25.7 µM
- GI50 (A549 NSCLC): 0.902 µM
- TGI (A549 NSCLC): > 59.2 µM
- GI50 (ACHN renal): 0.304 µM
- TGI (ACHN renal): 30.2 µM
- GI50 (BT-549 breast): 2.14 µM
- TGI (BT-549 breast): 42.1 µM
- GI50 (CAKI-1 renal): 0.365 µM
- TGI (CAKI-1 renal): > 100 µM
- TGI (CCRF-CEM leukemia): > 100 µM
- GI50 (COLO 205 colon): < 0.0215 µM
- TGI (COLO 205 colon): 50.7 µM
- GI50 (DU-145 prostate): 0.423 µM
- TGI (DU-145 prostate): > 100 µM
- GI50 (EKVX NSCLC): 2.53 µM
- TGI (EKVX NSCLC): > 100 µM
- GI50 (HCC-2998 colon): 12.3 µM
- TGI (HCC-2998 colon): > 100 µM
- GI50 (HCT-116 colon): < 0.01 µM
- TGI (HCT-116 colon): > 54.5 µM
- GI50 (HCT-15 colon): < 0.01 µM
- TGI (HCT-15 colon): > 100 µM
- GI50 (HL-60(TB) leukemia): 2.22 µM
- TGI (HL-60(TB) leukemia): > 100 µM
- GI50 (HOP-62 NSCLC): 2.02 µM
- TGI (HOP-62 NSCLC): 37 µM
- GI50 (HOP-92 NSCLC): 4.54 µM
- TGI (HOP-92 NSCLC): 39.3 µM
- GI50 (HS 578T breast): 1 µM
- TGI (HS 578T breast): 50.6 µM
- GI50 (HT29 colon): 0.506 µM
- TGI (HT29 colon): > 100 µM
- GI50 (IGROV1 ovarian): 0.484 µM
- TGI (IGROV1 ovarian): > 68.3 µM
- GI50 (K-562 leukemia): 10.2 µM
- TGI (K-562 leukemia): > 100 µM
- GI50 (KM12 colon): 1.44 µM
- TGI (KM12 colon): > 100 µM
- GI50 (LOX IMVI melanoma): 0.125 µM
- TGI (LOX IMVI melanoma): > 100 µM
- GI50 (M14 melanoma): 0.339 µM
- TGI (M14 melanoma): > 46.1 µM
- GI50 (MALME-3M melanoma): 2.08 µM
- TGI (MALME-3M melanoma): 54.8 µM
- GI50 (MCF7 breast): 0.822 µM
- TGI (MCF7 breast): > 100 µM
- GI50 (MDA-MB-231 breast): 2.16 µM
- TGI (MDA-MB-231 breast): > 100 µM
- GI50 (MDA-MB-435): 2.64 µM
- TGI (MDA-MB-435): > 100 µM
- GI50 (MOLT-4 leukemia): 2.03 µM
- TGI (MOLT-4 leukemia): > 100 µM
- GI50 (NCI-H226 lung): 7.34 µM
- TGI (NCI-H226 lung): 68.8 µM
- GI50 (NCI-H23 lung): 4.16 µM
- TGI (NCI-H23 lung): > 100 µM
- GI50 (NCI-H460 lung): < 0.01 µM
- TGI (NCI-H460 lung): > 54 µM
- GI50 (NCI-H522 lung): 0.381 µM
- TGI (NCI-H522 lung): > 64.8 µM
- GI50 (NCI/ADR-RES ovarian): 0.198 µM
- TGI (NCI/ADR-RES ovarian): > 80.6 µM
- GI50 (OVCAR-3 ovarian): 8.67 µM
- TGI (OVCAR-3 ovarian): > 91.9 µM
- GI50 (OVCAR-4 ovarian): 3.85 µM
- TGI (OVCAR-4 ovarian): > 87.2 µM
- GI50 (OVCAR-5 ovarian): 24.9 µM
- TGI (OVCAR-5 ovarian): > 100 µM
- GI50 (OVCAR-8 ovarian): 0.0738 µM
- TGI (OVCAR-8 ovarian): 26.9 µM
- GI50 (PC-3 prostate): 2.16 µM
- TGI (PC-3 prostate): > 78.5 µM
- GI50 (RPMI-8226 leukemia): 0.656 µM
- TGI (RPMI-8226 leukemia): > 100 µM
- GI50 (RXF 393 renal): 0.425 µM
- TGI (RXF 393 renal): 31.9 µM
- GI50 (SF-268 CNS): 4.98 µM
- TGI (SF-268 CNS): > 100 µM
- GI50 (SF-295 CNS): 0.638 µM
- TGI (SF-295 CNS): > 65.3 µM
- GI50 (SF-539 CNS): 0.758 µM
- TGI (SF-539 CNS): 21.9 µM
- GI50 (SK-MEL-2 melanoma): 0.552 µM
- TGI (SK-MEL-2 melanoma): 26.6 µM
- GI50 (SK-MEL-28 melanoma): 4.94 µM
- TGI (SK-MEL-28 melanoma): 59.1 µM
- GI50 (SK-MEL-5 melanoma): 4.75 µM
- TGI (SK-MEL-5 melanoma): > 100 µM
- GI50 (SK-OV-3 ovarian): 0.399 µM
- TGI (SK-OV-3 ovarian): 27.2 µM
- GI50 (SN12C renal): 0.527 µM
- TGI (SN12C renal): > 100 µM
- GI50 (SNB-19 CNS): 5.73 µM
- TGI (SNB-19 CNS): > 72.4 µM
- GI50 (SNB-75 CNS): 1.61 µM
- TGI (SNB-75 CNS): 31.1 µM
- GI50 (SR leukemia): 0.224 µM
- TGI (SR leukemia): 64.3 µM
- GI50 (SW-620 colon): 0.125 µM
- TGI (SW-620 colon): > 100 µM
- GI50 (T-47D breast): 1.9 µM
- TGI (T-47D breast): > 92.7 µM
- GI50 (TK-10 renal): 4.61 µM
- TGI (TK-10 renal): > 100 µM
- GI50 (U251 CNS): 0.597 µM
- TGI (U251 CNS): 57.8 µM
- GI50 (UACC-257 melanoma): 9.26 µM
- TGI (UACC-257 melanoma): 59.5 µM
- GI50 (UACC-62 melanoma): 0.681 µM
- TGI (UACC-62 melanoma): 85.5 µM
- GI50 (UO-31 renal): 0.355 µM
- TGI (UO-31 renal): > 53.6 µM
